Experimental data as given in US7202265B2, “Indolinone combinatorial libraries and related products and methods for the treatment of disease” (Sugen, Inc., priority 1997, dated 2007).

Tested on: human MET
Assay: MET biochemical kinase assay
Set-up: concentration or dose not given beside the values
Source text: (d) MET Biochemical Kinase Assay
A met biochemical kinase assay may be performed for met generally as described above for other kinases by substituting that or the other kinases. In particular, ELISA plates are coated with goat anti-rabbit Fc antibodies, which are used to capture commercially available (from Santa Cruz Biotechnology) rabbit polyclonal antibodies to the cytoplasmic domain of human MET. […] The chimeric receptors, or MET, from these lysates are captured on the antibody coated plates. After washing away extraneous proteins, test compounds are added and an in vitro kinase assay is performed by addition of an appropriate kinase buffer (containing ATP, divalent metal ions, etc.). Incorporation of phosphate into the captured receptors is detected with an anti-phosphotyrosine antibody conjugate with horse radish peroxidase using TMB as a substrate for calorimetric detection.

Met Kinase % Inhibition [%] | SMILES
9.4 | O=C1Nc2c(Br)cc(Br)cc2C1=Cc1ccc[nH]1 [10717/A09]
70.0 | Cn1cccc1C=C1C(=O)Nc2ccc(I)cc21 [10717/B04]
90.0 | Cc1ccc(C=C2C(=O)Nc3ccc(I)cc32)s1 [10717/B07]
91.0 | Cc1[nH]c(C=C2C(=O)Nc3ccc(I)cc32)c(Br)c1Br [10717/B11]
25.0 | Cc1c(Br)ccc2c1C(=Cc1cccn1C)C(=O)N2 [10717/C04]
21.0 | CNS(=O)(=O)c1ccc2c(c1)C(=Cc1cccn1C)C(=O)N2 [10717/D04]
16.0 | CNS(=O)(=O)c1ccc2c(c1)C(=Cc1ccc(Br)cc1)C(=O)N2 [10717/D08]
24.0 | CCOc1ccccc1C=C1C(=O)Nc2ccc(S(=O)(=O)Nc3ccc(C(F)(F)F)cc3)cc21 [10717/E02]
41.0 | Cc1ccc(C=C2C(=O)Nc3ccc(S(=O)(=O)Nc4ccc(C(F)(F)F)cc4)cc32)s1 [10717/E07]
49.0 | O=C1Nc2ccc(S(=O)(=O)N3CCOCC3)cc2C1=Cc1c[nH]c2ccccc12 [10717/F06]
64.0 | O=C1Nc2ccc(S(=O)(=O)N3CCOCC3)cc2C1=Cc1ccc(Br)cc1 [10717/F08]
4.5 | O=C1Nc2ccc(CCCl)cc2C1=Cc1cccs1 [10717/G03]
4.7 | O=C1Nc2ccc(CCCl)cc2C1=Cc1ccc(F)cc1 [10717/G05]
34.0 | O=C1Nc2ccc(CCCl)cc2C1=Cc1c[nH]c2ccccc12 [10717/G06]
7.5 | Cc1ccc(C=C2C(=O)Nc3ccc(CCCl)cc32)s1 [10717/G07]
8.7 | CCOC(=O)CCc1c(C(=O)OCC)[nH]c(C=C2C(=O)Nc3ccc(Br)c(C)c32)c1CC(=O)OCC [10718/C05]
3.9 | CCOC(=O)c1cc(C=C2C(=O)Nc3ccc(Br)c(C)c32)oc1C [10718/C06]
4.4 | Cc1c(Br)ccc2c1C(=Cc1ccco1)C(=O)N2 [10718/C10]
32.0 | CCOC(=O)c1c(C)[nH]c(C=C2C(=O)Nc3ccc(S(=O)(=O)NC)cc32)c1C [10718/D02]
2.3 | CNS(=O)(=O)c1ccc2c(c1)C(=Cc1ccc(Cl)c([N+](=O)[O-])c1)C(=O)N2 [10718/D08]
9.9 | CNS(=O)(=O)c1ccc2c(c1)C(=Cc1ccc(O)c(C)c1O)C(=O)N2 [10718/D09]
61.0 | CCOC(=O)c1cc(C=C2C(=O)Nc3ccc(CCCl)cc32)oc1C [10718/G06]
52.0 | COC(=O)c1[nH]c(C)c(C=C2C(=O)Nc3ccc(CCCl)cc32)c1C(=O)OC [10718/G07]
27.0 | Cc1c(O)ccc(C=C2C(=O)Nc3ccc(CCCl)cc32)c1O [10718/G09]

Met Kinase % Inhibition [%] | SMILES
3.0 | O=C1Nc2ccc(CCCl)cc2C1=Cc1ccc([N+](=O)[O-])o1 [10718/G11]
−7.0 | COc1cc(OC)c(C=C2C(=O)Nc3c(Br)cc(Br)cc32)c(OC)c1 [10719/A06]
47.0 | O=C1Nc2c(Br)cc(Br)cc2C1=Cc1ccc(F)cc1Cl [10719/A09]
47.0 | CCOc1ccc(C=C2C(=O)Nc3ccc(I)cc32)cc1OC [10719/B02]
7.7 | Cc1c(Br)ccc2c1C(=Cc1ccc(O)cc1)C(=O)N2 [10719/C07]
8.9 | Cc1c(Br)ccc2c1C(=Cc1ccc(F)cc1Cl)C(=O)N2 [10719/C09]
7.9 | Cc1c(Br)ccc2c1C(=Cc1cccc([N+](=O)[O-])c1)C(=O)N2 [10719/C10]
−5.1 | Cc1c(Br)ccc2c1C(=Cc1ccc(F)cc1C(F)(F)F)C(=O)N2 [10719/C11]
13.0 | CNS(=O)(=O)c1ccc2c(c1)C(=Cc1ccc(F)cc1Cl)C(=O)N2 [10719/D09]
3.1 | COc1ccc(C=C2C(=O)Nc3ccc(S(=O)(=O)Nc4ccc(C(F)(F)F)cc4)cc32)c(OC)c1 [10719/E04]
39.0 | CCc1c(C)[nH]c(C=C2C(=O)Nc3ccc(S(=O)(=O)Nc4ccc(C(F)(F)F)cc4)cc32)c1C [10719/E05]
−4.5 | COc1cc(OC)c(C=C2C(=O)Nc3ccc(S(=O)(=O)Nc4ccc(C(F)(F)F)cc4)cc32)c(OC)c1 [10719/E06]
80.0 | CN(C)c1ccc(C=C2C(=O)Nc3ccc(S(=O)(=O)Nc4ccc(C(F)(F)F)cc4)cc32)cc1 [10719/E08]
3.3 | COc1ccc(C=C2C(=O)Nc3ccc(S(=O)(=O)N4CCOCC4)cc32)c(OC)c1 [10719/F04]
−22.0 | COc1cc(OC)c(C=C2C(=O)Nc3ccc(S(=O)(=O)N4CCOCC4)cc32)c(OC)c1 [10719/F06]
8.7 | O=C1Nc2ccc(S(=O)(=O)N3CCOCC3)cc2C1=Cc1ccc(F)cc1C(F)(F)F [10719/F11]
−2.4 | CCOc1ccc(C=C2C(=O)Nc3ccc(CCCl)cc32)cc1OC [10719/G02]
−8.2 | COc1ccc(C=C2C(=O)Nc3ccc(CCCl)cc32)c(OC)c1 [10719/G04]
−18.1 | COc1cc(OC)c(C=C2C(=O)Nc3ccc(CCCl)cc32)c(OC)c1 [10719/G06]
24.0 | O=C1Nc2ccc(CCCl)cc2C1=Cc1ccc(O)cc1 [10719/G07]
1.3 | O=C1Nc2ccc(CCCl)cc2C1=Cc1ccc(F)cc1Cl [10719/G09]
24.0 | O=C1Nc2ccc(CCCl)cc2C1=Cc1ccc(F)cc1C(F)(F)F [10719/G11]
29.0 | COc1ccc(C=C2C(=O)Nc3ccc(Br)c(C)c32)cc1OC [10720/C04]
30.0 | Cc1c(Br)ccc2c1C(=Cc1ncc[nH]1)C(=O)N2 [10720/C11]

Met Kinase % Inhibition [%] | SMILES
9.8 | CNS(=O)(=O)c1ccc2c(c1)C(=Cc1ccccc1O)C(=O)N2 [10720/D05]
51.0 | CNS(=O)(=O)c1ccc2c(c1)C(=Cc1cc(OC)ccc1O)C(=O)N2 [10720/D10]
18.0 | O=C1Nc2ccc(S(=O)(=O)Nc3ccc(C(F)(F)F)cc3)cc2C1=Cc1c(F)cc(F)cc1F [10720/E02]
−10.4 | O=C1Nc2ccc(S(=O)(=O)Nc3ccc(C(F)(F)F)cc3)cc2C1=Cc1ncc[nH]1 [10720/E11]
1.6 | O=C1Nc2ccc(S(=O)(=O)N3CCOCC3)cc2C1=Cc1ncc[nH]1 [10720/F11]
5.0 | COc1ccc(C=C2C(=O)Nc3ccc(CCCl)cc32)cc1OC [10720/G04]
37.0 | O=C1Nc2ccc(CCCl)cc2C1=Cc1ccccc1O [10720/G05]
85.0 | Cc1cc(C=C2C(=O)Nc3c(Br)cc(Br)cc32)sc1C [10721/A04]
23.0 | CC(C)(C)c1cc(C=C2C(=O)Nc3c(Br)cc(Br)cc32)ccc1O [10721/A09]
6.7 | CC(C)(C)c1cc(C=C2C(=O)Nc3ccc(I)cc32)cc(C(C)(C)C)c1O [10721/B11]
6.2 | Cc1c(Br)ccc2c1C(=Cc1nn(C)cc1Cl)C(=O)N2 [10721/C03]
−4.7 | Cc1c(Br)ccc2c1C(=Cc1ccc(O)c(C(C)(C)C)c1)C(=O)N2 [10721/C09]
3.7 | Cc1c(Br)ccc2c1C(=Cc1cc(C(C)(C)C)c(O)c(C(C)(C)C)c1)C(=O)N2 [10721/C11]
9.0 | CNS(=O)(=O)c1ccc2c(c1)C(=Cc1cc([N+](=O)[O-])cc(CCl)c1O)C(=O)N2 [10721/D06]
−6.8 | CNS(=O)(=O)c1ccc2c(c1)C(=Cc1ccc(Cl)s1)C(=O)N2 [10721/D07]
−4.9 | CNS(=O)(=O)c1ccc2c(c1)C(=Cc1ccc(O)c(C(C)(C)C)c1)C(=O)N2 [10721/D09]
81.0 | O=C1Nc2ccc(S(=O)(=O)Nc3ccc(C(F)(F)F)cc3)cc2C1=Cc1cc([N+](=O)[O-])cc(CCl)c1O [10721/E06]
0.7 | CC(C)(C)c1cc(C=C2C(=O)Nc3ccc(S(=O)(=O)Nc4ccc(C(F)(F)F)cc4)cc32)ccc1O [10721/E09]
26.0 | Cc1cc(C=C2C(=O)Nc3ccc(S(=O)(=O)N4CCOCC4)cc32)sc1C [10721/F04]
7.9 | Cn1c(C=C2C(=O)Nc3ccc(CCCl)cc32)nc2ccccc21 [10721/G02]
8.6 | O=C1Nc2ccc(CCCl)cc2C1=Cc1cc2c([nH]1)CCCC2 [10721/G05]
10.0 | O=C1Nc2ccc(CCCl)cc2C1=Cc1ccc(Cl)s1 [10721/G07]
−2.4 | Cc1cc(C)c(C=C2C(=O)Nc3ccc(CCCl)cc32)[nH]1 [10721/G08]
